In ChEMBL document CHEMBL1145094, “A novel and selective 5-HT2 receptor agonist with ocular hypotensive activity: (S)-(+)-1-(2-aminopropyl)-8,9-dihydropyrano[3,2-e]indole” (J Med Chem, 2003):

Key:
[1] = biological target: T1, 5-hydroxytryptamine receptor 1A (Homo sapiens, UniProt P08908); test: Tested for functional response on CHO cells expressing cloned human 5-hydroxytryptamine 1A receptor; assay type: cell-based
T1 sequence (P08908 whole entry): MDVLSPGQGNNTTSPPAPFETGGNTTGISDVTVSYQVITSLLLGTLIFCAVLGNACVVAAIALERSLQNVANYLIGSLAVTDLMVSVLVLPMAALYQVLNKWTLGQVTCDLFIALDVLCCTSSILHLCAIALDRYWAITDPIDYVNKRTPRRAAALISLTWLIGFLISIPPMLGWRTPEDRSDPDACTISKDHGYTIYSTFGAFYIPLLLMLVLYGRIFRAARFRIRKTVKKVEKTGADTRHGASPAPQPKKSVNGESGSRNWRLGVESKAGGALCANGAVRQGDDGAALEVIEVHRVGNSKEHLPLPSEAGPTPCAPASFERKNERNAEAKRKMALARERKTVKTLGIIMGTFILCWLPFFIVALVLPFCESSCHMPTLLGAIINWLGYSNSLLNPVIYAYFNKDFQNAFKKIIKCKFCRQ

[2] = biological target: T1, 5-hydroxytryptamine receptor 1A; test: In vitro inhibitory concentration required against [3H]8-OH-DPAT binding to cloned human 5-hydroxytryptamine 1A receptor
[3] = biological target: 5-hydroxytryptamine receptor 2A (Rattus norvegicus) (UniProt P14842); test: In vitro efficacy against rat 5-hydroxytryptamine 2A receptor was determined by using CA+ assay (Emax)
Sequence of 5-hydroxytryptamine receptor 2A (Rattus norvegicus) (P14842 whole entry): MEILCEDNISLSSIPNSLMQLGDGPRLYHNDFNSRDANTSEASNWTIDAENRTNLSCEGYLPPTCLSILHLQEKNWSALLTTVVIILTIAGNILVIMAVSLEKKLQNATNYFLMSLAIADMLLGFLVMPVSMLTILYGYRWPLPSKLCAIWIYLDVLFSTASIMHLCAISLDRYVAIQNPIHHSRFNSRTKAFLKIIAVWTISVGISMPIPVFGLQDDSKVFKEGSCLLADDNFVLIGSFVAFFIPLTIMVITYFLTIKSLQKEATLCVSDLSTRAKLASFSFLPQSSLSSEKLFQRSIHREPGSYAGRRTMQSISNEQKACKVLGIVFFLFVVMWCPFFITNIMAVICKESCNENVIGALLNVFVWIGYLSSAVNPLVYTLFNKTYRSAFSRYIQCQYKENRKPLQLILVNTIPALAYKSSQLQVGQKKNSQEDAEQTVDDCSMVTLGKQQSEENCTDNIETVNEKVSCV

[4] = biological target: 5-hydroxytryptamine receptor 2A (Rattus norvegicus) (UniProt P14842); test: In vitro efficacy against rat 5-hydroxytryptamine 2A receptor determined by using PI assay (Emax)
[5] = biological target: T2, 5-hydroxytryptamine receptor 2A (Homo sapiens, UniProt P28223); test: Inhibitory constant against cloned human 5-hydroxytryptamine 2A receptor using with [125I]- DOI radioligand
[6] = biological target: 5-hydroxytryptamine receptor 2B (Homo sapiens, UniProt P41595); test: Inhibitory constant against cloned human 5-hydroxytryptamine 2B receptor using with [125I]- DOI radioligand
Sequence of 5-hydroxytryptamine receptor 2B (P41595 whole entry): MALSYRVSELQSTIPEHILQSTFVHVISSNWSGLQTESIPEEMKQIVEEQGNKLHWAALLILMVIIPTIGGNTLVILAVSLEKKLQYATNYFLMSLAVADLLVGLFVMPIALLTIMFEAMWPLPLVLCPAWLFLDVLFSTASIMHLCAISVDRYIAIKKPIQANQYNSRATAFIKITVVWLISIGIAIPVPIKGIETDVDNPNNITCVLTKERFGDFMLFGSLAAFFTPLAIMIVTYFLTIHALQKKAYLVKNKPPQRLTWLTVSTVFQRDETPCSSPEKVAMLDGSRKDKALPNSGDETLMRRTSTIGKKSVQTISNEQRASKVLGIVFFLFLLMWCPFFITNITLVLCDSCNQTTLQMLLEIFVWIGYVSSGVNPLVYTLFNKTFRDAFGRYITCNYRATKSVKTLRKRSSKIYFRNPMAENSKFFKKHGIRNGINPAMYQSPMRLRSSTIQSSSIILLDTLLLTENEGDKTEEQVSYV

[7] = biological target: T3, 5-hydroxytryptamine receptor 2A (Rattus norvegicus, UniProt P14842); test: In vitro relative agonist activity against 5-hydroxytryptamine 2A using PI assay in rat vascular smooth muscle cells; assay type: functional
T3 sequence (P14842 whole entry): as the sequence (P14842 whole entry) above

[8] = biological target: T4, 5-hydroxytryptamine receptor 2C (Homo sapiens, UniProt P28335); test: Inhibitory constant against cloned human 5-hydroxytryptamine 2C receptor using with [125I]- DOI radioligand
T4 sequence (P28335 whole entry): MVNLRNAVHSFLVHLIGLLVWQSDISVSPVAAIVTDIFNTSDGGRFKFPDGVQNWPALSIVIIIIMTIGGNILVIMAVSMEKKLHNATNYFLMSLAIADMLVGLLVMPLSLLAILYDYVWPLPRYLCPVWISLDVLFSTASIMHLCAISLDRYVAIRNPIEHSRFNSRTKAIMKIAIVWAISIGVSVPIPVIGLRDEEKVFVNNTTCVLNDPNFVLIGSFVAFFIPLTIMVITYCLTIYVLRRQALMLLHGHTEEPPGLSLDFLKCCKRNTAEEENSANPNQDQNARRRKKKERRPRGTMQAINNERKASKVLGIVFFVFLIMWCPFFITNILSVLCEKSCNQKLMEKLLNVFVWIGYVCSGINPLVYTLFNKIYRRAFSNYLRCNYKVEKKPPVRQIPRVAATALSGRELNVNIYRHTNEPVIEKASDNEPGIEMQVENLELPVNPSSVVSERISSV

[9] = biological target: T3, 5-hydroxytryptamine receptor 2A; test: In vitro inhibition of [125I]DOI binding to 5-hydroxytryptamine 2A receptor in rat cerebral cortex; assay type: tissue-based
[10] = biological target: T3, 5-hydroxytryptamine receptor 2A; test: In vitro inhibitory constant against [125I]DOI binding to 5-hydroxytryptamine 2A receptor in rat cerebral cortex; assay type: tissue-based
Monkey [11] = test: Tested for the ability to lower IOP in conscious cynomolgus monkeys with laser-induced ocular hypertension after 1 hr postdose of the compound; assay type: functional, Cercopithecidae, Eye
Monkey [12] = test: Tested for the ability to lower IOP in conscious cynomolgus monkeys with laser-induced ocular hypertension after 3h postdose of the compound; assay type: functional, Cercopithecidae, Eye
Monkey [13] = test: Tested for the ability to lower IOP in conscious cynomolgus monkeys with laser-induced ocular hypertension after 6 hr postdose of the compound; assay type: functional, Cercopithecidae, Eye
[14] = biological target: T2, 5-hydroxytryptamine receptor 2A; test: Inhibitory constant determined against cloned human 5-hydroxytryptamine 2A receptor using with [125I]- DOI radioligand
Target sequence in this assay (P28223 whole entry): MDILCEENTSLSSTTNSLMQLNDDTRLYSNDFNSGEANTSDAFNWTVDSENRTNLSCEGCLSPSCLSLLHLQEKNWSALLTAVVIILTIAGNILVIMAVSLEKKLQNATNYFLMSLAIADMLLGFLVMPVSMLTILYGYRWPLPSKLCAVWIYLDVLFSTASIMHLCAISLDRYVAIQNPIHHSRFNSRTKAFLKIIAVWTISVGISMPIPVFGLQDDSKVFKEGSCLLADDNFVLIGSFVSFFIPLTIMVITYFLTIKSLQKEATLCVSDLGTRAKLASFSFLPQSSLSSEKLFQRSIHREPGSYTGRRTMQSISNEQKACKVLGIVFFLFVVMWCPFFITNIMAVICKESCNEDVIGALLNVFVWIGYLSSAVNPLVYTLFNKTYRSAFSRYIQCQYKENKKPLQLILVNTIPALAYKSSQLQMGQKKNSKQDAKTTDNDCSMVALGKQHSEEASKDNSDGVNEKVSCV

[15] = biological target: 5-hydroxytryptamine receptor 1B (Homo sapiens, UniProt P28222); test: Inhibitory constant against 5-hydroxytryptamine 1B receptor using with [125I]- cyanopindolol radioligand
[16] = biological target: 5-hydroxytryptamine receptor 1D (Homo sapiens, UniProt P28221); test: Inhibitory constant against human 5-hydroxytryptamine 1D receptor using [3H]5-CT radioligand
[17] = biological target: 5-hydroxytryptamine receptor 6 (Homo sapiens, UniProt P50406); test: Inhibitory constant against human 5-hydroxytryptamine 6 receptor using [3H]LSD radioligand
Sequence of 5-hydroxytryptamine receptor 6 (P50406 whole entry): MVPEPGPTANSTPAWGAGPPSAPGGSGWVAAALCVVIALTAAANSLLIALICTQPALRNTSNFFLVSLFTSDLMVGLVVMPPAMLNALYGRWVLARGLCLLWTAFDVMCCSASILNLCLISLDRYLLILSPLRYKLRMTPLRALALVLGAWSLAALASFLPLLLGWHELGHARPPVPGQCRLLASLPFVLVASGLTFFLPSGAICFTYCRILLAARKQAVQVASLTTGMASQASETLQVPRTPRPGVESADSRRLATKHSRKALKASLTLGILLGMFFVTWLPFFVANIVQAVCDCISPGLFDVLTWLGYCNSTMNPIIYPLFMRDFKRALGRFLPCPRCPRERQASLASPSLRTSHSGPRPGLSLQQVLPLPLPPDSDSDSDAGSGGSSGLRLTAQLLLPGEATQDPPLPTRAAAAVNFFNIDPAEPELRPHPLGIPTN

[18] = biological target: 5-hydroxytryptamine receptor 3A (Homo sapiens, UniProt P46098); test: Inhibitory constant against 5-hydroxytryptamine 3 receptor using [3H]GR-65630 radioligand
[19] = biological target: 5-hydroxytryptamine receptor 4 (Homo sapiens, UniProt Q13639); test: Inhibitory constant against 5-hydroxytryptamine 4 receptor using [3H]GR-113808 radioligand
Sequence of 5-hydroxytryptamine receptor 4 (Q13639 whole entry): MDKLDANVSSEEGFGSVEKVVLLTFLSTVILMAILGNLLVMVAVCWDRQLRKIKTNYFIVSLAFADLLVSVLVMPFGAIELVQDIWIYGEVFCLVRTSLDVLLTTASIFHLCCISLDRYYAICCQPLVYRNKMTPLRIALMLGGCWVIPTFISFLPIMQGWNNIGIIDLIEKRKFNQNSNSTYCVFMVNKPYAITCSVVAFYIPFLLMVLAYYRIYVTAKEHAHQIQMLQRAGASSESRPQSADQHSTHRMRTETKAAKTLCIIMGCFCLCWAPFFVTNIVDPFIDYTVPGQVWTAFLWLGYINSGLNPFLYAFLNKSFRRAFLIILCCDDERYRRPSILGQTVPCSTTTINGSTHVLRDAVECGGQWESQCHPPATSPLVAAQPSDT

[20] = biological target: 5-hydroxytryptamine receptor 5A (Homo sapiens, UniProt P47898); test: Inhibitory constant against human 5-hydroxytryptamine 5A receptor using [3H]LSD radioligand
Sequence of 5-hydroxytryptamine receptor 5A (P47898 whole entry, looked up): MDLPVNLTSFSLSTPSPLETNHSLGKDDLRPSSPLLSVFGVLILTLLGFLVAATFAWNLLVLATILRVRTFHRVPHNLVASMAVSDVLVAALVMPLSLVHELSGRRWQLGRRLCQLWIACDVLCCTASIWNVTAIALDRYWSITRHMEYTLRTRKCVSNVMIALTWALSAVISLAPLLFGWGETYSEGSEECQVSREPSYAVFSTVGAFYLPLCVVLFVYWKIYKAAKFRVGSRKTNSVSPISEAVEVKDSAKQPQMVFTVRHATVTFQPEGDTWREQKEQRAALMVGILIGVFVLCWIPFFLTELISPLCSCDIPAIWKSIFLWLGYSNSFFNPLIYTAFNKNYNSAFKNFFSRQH

[21] = biological target: Alpha-2A adrenergic receptor (Homo sapiens, UniProt P08913); test: (§1) Inhibitory concentration required against Alpha-2A adrenergic receptor using [3H]clonidine radioligand
Sequence of Alpha-2A adrenergic receptor (P08913 whole entry): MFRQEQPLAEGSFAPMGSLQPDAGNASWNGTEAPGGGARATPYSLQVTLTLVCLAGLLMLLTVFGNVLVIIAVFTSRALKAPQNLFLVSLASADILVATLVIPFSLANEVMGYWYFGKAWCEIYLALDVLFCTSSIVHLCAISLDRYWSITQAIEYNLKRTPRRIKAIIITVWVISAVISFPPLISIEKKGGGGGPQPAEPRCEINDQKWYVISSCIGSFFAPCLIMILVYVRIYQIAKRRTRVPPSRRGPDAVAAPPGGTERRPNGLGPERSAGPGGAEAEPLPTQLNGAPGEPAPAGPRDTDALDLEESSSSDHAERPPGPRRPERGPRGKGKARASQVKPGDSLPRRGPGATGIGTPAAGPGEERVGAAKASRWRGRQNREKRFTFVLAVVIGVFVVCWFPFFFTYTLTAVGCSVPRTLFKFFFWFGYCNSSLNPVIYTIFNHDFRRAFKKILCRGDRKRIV

[22] = biological target: T5, Alpha-2C adrenergic receptor (Homo sapiens, UniProt P18825); test: as §1
T5 sequence (P18825 whole entry): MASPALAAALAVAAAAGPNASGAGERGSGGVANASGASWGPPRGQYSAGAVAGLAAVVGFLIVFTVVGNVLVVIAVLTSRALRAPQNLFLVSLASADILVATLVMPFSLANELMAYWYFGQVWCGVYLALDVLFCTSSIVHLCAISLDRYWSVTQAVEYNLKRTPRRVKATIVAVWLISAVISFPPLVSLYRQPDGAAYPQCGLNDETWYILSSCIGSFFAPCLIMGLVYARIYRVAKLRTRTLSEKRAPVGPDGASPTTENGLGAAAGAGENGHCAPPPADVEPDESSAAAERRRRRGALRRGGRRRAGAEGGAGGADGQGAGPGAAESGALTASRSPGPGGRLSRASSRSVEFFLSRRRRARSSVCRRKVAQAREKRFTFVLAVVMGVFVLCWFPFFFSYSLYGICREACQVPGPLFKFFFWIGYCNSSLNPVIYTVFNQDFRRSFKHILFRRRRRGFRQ

[23] = biological target: Alpha-1B adrenergic receptor (Rattus norvegicus, UniProt P15823); test: Inhibitory constant against Alpha-1B adrenergic radioligand
[24] = biological target: Alpha-2B adrenergic receptor (Rattus norvegicus, UniProt P19328); test: Inhibitory constant against Alpha-2B adrenergic receptor using [3H]MK-912 radioligand
[25] = biological target: T6, Alpha-1A adrenergic receptor (Rattus norvegicus, UniProt P43140); test: Inhibitory constant against alpha-1A receptor using [3H]-7-MeO prazosin radioligand
T6 sequence (P43140 whole entry): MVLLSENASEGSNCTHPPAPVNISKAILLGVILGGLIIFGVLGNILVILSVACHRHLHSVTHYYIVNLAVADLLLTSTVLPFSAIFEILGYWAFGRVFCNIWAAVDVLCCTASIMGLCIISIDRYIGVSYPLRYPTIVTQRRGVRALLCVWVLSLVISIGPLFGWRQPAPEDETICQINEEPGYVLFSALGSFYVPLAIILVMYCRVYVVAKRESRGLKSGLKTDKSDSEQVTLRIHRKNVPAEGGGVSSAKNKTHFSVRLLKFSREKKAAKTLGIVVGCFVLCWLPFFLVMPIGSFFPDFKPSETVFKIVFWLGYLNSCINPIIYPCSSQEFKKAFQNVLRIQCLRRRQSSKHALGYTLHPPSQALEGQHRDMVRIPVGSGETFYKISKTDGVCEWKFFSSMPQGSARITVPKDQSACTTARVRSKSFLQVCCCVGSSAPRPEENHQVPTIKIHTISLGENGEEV

[26] = biological target: Sodium-dependent noradrenaline transporter (Homo sapiens, UniProt P23975); test: Inhibitory constant against norepinephrine transporter receptor using [3H]radioligand
Sequence of Sodium-dependent noradrenaline transporter (P23975 whole entry): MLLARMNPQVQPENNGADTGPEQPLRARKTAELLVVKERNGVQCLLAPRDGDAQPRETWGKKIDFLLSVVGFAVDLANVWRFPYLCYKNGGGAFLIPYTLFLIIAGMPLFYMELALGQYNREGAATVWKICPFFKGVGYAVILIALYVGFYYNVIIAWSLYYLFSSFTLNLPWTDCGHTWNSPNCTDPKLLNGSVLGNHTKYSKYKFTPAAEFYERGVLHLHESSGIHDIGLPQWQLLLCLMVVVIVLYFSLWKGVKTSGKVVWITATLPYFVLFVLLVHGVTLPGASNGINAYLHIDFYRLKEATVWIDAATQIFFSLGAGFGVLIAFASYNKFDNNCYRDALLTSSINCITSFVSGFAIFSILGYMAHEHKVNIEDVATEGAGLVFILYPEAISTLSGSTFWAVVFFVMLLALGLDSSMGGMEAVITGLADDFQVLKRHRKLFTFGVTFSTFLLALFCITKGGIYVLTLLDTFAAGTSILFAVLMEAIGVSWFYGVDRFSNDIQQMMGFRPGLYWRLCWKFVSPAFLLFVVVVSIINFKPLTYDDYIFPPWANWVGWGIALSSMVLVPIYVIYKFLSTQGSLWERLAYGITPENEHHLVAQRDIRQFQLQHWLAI

[27] = biological target: Sodium-dependent serotonin transporter (Homo sapiens, UniProt P31645); test: Inhibitory constant against human serotonin transporter using [3H]N-Me-citalopram radioligand
Sequence of Sodium-dependent serotonin transporter (P31645 whole entry): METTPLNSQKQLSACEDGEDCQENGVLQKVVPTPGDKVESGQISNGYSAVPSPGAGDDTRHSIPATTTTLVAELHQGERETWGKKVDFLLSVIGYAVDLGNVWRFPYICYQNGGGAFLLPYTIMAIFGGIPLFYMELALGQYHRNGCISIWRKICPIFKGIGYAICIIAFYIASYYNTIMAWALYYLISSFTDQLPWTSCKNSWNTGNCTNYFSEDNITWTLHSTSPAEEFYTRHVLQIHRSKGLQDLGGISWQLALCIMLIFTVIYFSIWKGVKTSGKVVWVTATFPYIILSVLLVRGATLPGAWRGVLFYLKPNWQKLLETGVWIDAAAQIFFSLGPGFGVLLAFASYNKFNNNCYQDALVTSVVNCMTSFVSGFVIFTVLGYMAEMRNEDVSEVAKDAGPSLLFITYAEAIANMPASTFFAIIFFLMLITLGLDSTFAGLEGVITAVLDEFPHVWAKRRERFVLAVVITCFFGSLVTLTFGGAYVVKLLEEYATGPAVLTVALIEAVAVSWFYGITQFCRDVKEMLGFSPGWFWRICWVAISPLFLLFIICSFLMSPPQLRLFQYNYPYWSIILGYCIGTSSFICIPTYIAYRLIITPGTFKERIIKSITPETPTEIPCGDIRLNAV

[28] = biological target: 5-hydroxytryptamine receptor 7 (Homo sapiens, UniProt P34969); test: Inhibitory constant against human 5-hydroxytryptamine 7 receptor using [3H]LSD radioligand
[29] = biological target: T6, Alpha-1A adrenergic receptor; test: Inhibitory constant against Alpha-1A adrenergic receptor using [3H]-7-MeO prazosin radioligand
[30] = biological target: T6, Alpha-1A adrenergic receptor; test: Inhibitory constant against Alpha-1B adrenergic receptor using [3H]-7-MeO prazosin radioligand
[31] = biological target: T5, Alpha-2C adrenergic receptor; test: Inhibitory concentration required against Alpha-2C adrenergic receptor using [3H]clonidine radioligand

Structure (SMILES): CC(N)Cc1c[nH]c2ccc(O)cc12 (stereo not given)
- EC50 [1]: 378 nM
- IC50 [2]: 19.6 nM
- Efficacy [3]: 99%
- Efficacy [4]: 98%
- Ki [5]: 12 nM
- Ki [6]: 13 nM

Structure (SMILES): CC(N)Cc1cn(C)c2ccc3c(c12)CCCO3 (stereo not given)
- EC50 [1]: > 10000 nM
- IC50 [2]: 12200 nM
- EC50 [7]: 134 nM
- Efficacy [3]: 79%
- Efficacy [4]: 102%
- Ki [8]: 2.7 nM
- IC50 [9]: 0.5 nM
- Ki [5]: 28 nM
- Ki [6]: 11 nM
- Ki [10]: 0.2 nM
- Reduction (Monkey [11]): <18.8%
- Reduction (Monkey [12]): <28%
- Reduction (Monkey [13]): <26.1%

Structure (SMILES): Cn1cc(CCN)c2c3c(ccc21)OCCC3
- IC50 [2]: 8410 nM
- EC50 [7]: 213 nM
- Efficacy [3]: 70%
- Efficacy [4]: 96%
- IC50 [9]: 2.8 nM
- Ki [14]: 8.2 nM
- Ki [10]: 1.1 nM

Structure (SMILES): C[C@H](N)Cc1c[nH]c2ccc3c(c12)CCCO3
- IC50 [2]: > 10000 nM
- Ki [15]: 3300 nM
- EC50 [7]: 80.1 nM
- Efficacy [3]: 103%
- Efficacy [4]: 90%
- Ki [8]: 3.4 nM
- IC50 [9]: 0.5 nM
- Ki [5]: 2 nM
- Ki [16]: > 10000 nM
- Ki [6]: 5.3 nM
- Ki [10]: 0.2 nM
- Ki [17]: 2200 nM
- Ki [18]: > 10000 nM
- Ki [19]: 1700 nM
- Ki [20]: > 10000 nM
- IC50 [21]: 19000 nM
- IC50 [22]: 14000 nM
- Ki [23]: > 10000 nM
- Ki [24]: > 10000 nM
- Ki [25]: > 10000 nM
- Reduction (Monkey [11]): <18.1%
- Reduction (Monkey [12]): <33.2%
- Reduction (Monkey [13]): <37%
- Ki [26]: > 10000 nM
- Ki [27]: > 10000 nM

Structure (SMILES): COc1cc(C[C@@H](C)N)c(OC)cc1I
- EC50 [7]: 27.7 nM
- Efficacy [3]: 33%
- Ki [8]: 4 nM
- IC50 [9]: 0.4 nM
- Ki [6]: 18 nM
- Ki [10]: 0.1 nM
- Reduction (Monkey [11]): 11%
- Reduction (Monkey [12]): 25.3%
- Reduction (Monkey [13]): 34.4%

Structure (SMILES): CC(N)Cc1c[nH]c2ccc3c(c12)CCCO3 (stereo not given)
- EC50 [1]: > 10000 nM
- IC50 [2]: 10900 nM
- Ki [15]: > 10000 nM
- Efficacy [3]: 97%
- Efficacy [4]: 81%
- Ki [8]: 5.5 nM
- IC50 [9]: 0.7 nM
- Ki [5]: 3.6 nM
- Ki [6]: 13 nM
- Ki [10]: 0.3 nM
- Ki [17]: 400 nM
- Ki [18]: > 10000 nM
- Ki [19]: 1800 nM
- Ki [20]: 1900 nM
- Ki [28]: 24000 nM
- IC50 [21]: > 10000 nM
- Ki [24]: 10000 nM
- Ki [29]: > 30000 nM
- Ki [30]: > 30000 nM
- IC50 [31]: > 30000 nM
- Reduction (Monkey [11]): <16%
- Reduction (Monkey [12]): <28%
- Reduction (Monkey [13]): <22.9%
- Ki [26]: > 30000 nM
- Ki [27]: > 10000 nM

Structure (SMILES): C[C@@H](N)Cc1c[nH]c2ccc3c(c12)CCCO3
- IC50 [2]: 8650 nM
- EC50 [7]: 292 nM
- Efficacy [3]: 71%
- Efficacy [4]: 83%
- Ki [8]: 20 nM
- IC50 [9]: 1.5 nM
- Ki [14]: 3.6 nM
- Ki [6]: 19 nM
- Ki [10]: 0.5 nM
- Reduction (Monkey [11]): <12.7%
- Reduction (Monkey [12]): <24.8%
- Reduction (Monkey [13]): <32.5%

Structure (SMILES): CN(C)CCc1c[nH]c2ccc3c(c12)CCCO3
- IC50 [2]: 562 nM
- Efficacy [3]: 47%
- Efficacy [4]: 63%
- Ki [8]: 16 nM
- Ki [14]: 17 nM
- Ki [6]: 26 nM

Structure (SMILES): NCCc1c[nH]c2ccc3c(c12)CCCO3
- IC50 [2]: 287 nM
- EC50 [7]: 181 nM
- Efficacy [3]: 99%
- Efficacy [4]: 99%
- Ki [8]: 6.3 nM
- IC50 [9]: 1.8 nM
- Ki [14]: 4.9 nM
- Ki [6]: 14 nM
- Ki [10]: 0.6 nM

Structure (SMILES): COc1ccc2[nH]cc(CC(C)N)c2c1 (stereo not given)
- EC50 [1]: 564 nM
- IC50 [2]: 86.4 nM
- EC50 [7]: 285 nM
- Efficacy [3]: 96%
- Efficacy [4]: 107%
- Ki [8]: 8.3 nM
- IC50 [9]: 4.4 nM
- Ki [5]: 4.6 nM
- Ki [6]: 7.8 nM
- Ki [10]: 1.6 nM
- Reduction (Monkey [11]): 21.6%
- Reduction (Monkey [12]): 35.2%
- Reduction (Monkey [13]): 33.4%
